A short description of assay [1]: titration curve of pyruvate optical sensor (concentration gradient pyruvate detection). The format is binding. The settings on record: for change of the ratio of fluorescence intensity at 528 nm after excitation at 420 nm and at 485 nm: pyruvate concentration gradient; for Kd: ratio of fluorescence at 528 nm, excitation 420 nm and 485 nm, read-out: Kd (binding constant). The method, then: 6. Take 100 μl of 1 μM protein solution, incubate at 37° C. for 5 minutes, add pyruvate for titration, and measure the fluorescence intensity of the protein emitted at 528 nm after fluorescence excitation at 485 nm. The fluorescence excitation and emission measurement of the samples were completed by a multifunctional fluorescence microplate reader.

The nature of assay [2]: specificity of purified pyruvate optical sensors. The format is biochemical. The settings on record: purified sensor.
A short description of assay [3]: fluorescence spectra of purified sensor treated with 0 mM and 10 mM pyruvate. The format is biochemical. The settings on record: 10 minutes. The procedure:
7. Take 100 μl of 1 μM protein solution, incubate at 37° C. for 5 minutes, add pyruvate, and measure the absorption and fluorescence spectra of the protein. The determination of the absorption spectrum and fluorescence spectrum of the sample is completed by a spectrophotometer and a fluorescence spectrophotometer.
Exemplarily, after the purified pyruvate optical sensor PdhR(96-254)-192/194-M194V-cpYFP was treated with 0 mM and 10 mM pyruvate for 10 minutes, respectively, the fluorescence spectrum was detected using a fluorescence spectrophotometer.
Determination of excitation spectra: Excitation spectra were recorded with an excitation range of 350 nm to 500 nm and an emission wavelength of 530 nm, with readings every 5 nm.
Determination of emission spectra: excitation spectra were recorded with an fixed excitation wavelength of 420 nm and 490 nm and an emission range of 505-600 nm, read every 5 nm.

Results on ten substances are retold here after patent US20230324373A1, “PYRUVIC ACID OPTICAL PROBE, PREPARATION METHOD THEREFOR, AND APPLICATION THEREOF” (East China University of Science and Technology, priority 2020, published 2023).

Consider “192/194-M194V: cpYFP at 192/194 of PdhR(96-254), mutation M194V (family SEQ ID NO: 22; coding sequence SEQ ID NO: 31)”, for which, in assay [1], the “change of the ratio of fluorescence intensity at 528 nm after excitation at 420 nm and at 485 nm” value (from here on “change of the ratio … at 485 nm”) is reported as 9.7 times; the Kd was 475 µM. The specificity result in assay [2] is reported as “good specificity”. In addition, in assay [3], the “fluorescence intensity excited at 420 nm relative to 0 mM pyruvate” value is given as 0.6 times and the “fluorescence intensity excited at 490 nm relative to 0 mM pyruvate” value turned out to be 5.8 times.

Take “141/143-S 190L/R191V: cpYFP at 141/143 of PdhR(96-254), mutations S190L/R191V”: in assay [1], the “change of the ratio … at 485 nm” value is recorded as 4.2 times; the Kd is 185 µM.

“141/143-S190T/R191Q/R192E: cpYFP at 141/143 of PdhR(96-254), mutations S190T/R191Q/R192E”: in assay [1], the “change of the ratio … at 485 nm” value is 2.7 times; the Kd was found to be 186 µM.

“141/143-S190P/R191H/R192P: cpYFP at 141/143 of PdhR(96-254), mutations S190P/R191H/R192P”: in assay [1], the “change of the ratio … at 485 nm” value was 3.2 times; the Kd came out at 84 µM.

For “141/143-R191S/R192T: cpYFP at 141/143 of PdhR(96-254), mutations R191S/R192T”, in assay [1], the “change of the ratio … at 485 nm” value is 3.9 times; the dissociation constant Kd is 164 µM.

“PdhR(96-254)-192/194-M194V/S190D/R191Y/R192T-cpYFP: cpYFP at 192/194 of PdhR(96-254), mutations M194V/S190D/R191Y/R192T”: the specificity entry in assay [2] was “good specificity”.

As to “192/195: optical sensor with cpYFP inserted at site 192/195 of PdhR(96-254)”, in assay [1], the “change of the ratio … at 485 nm” value is given as 8.3 times; the Kd was determined as 19900 µM.

As to “141/143-S190R/R191S/R192P: cpYFP at 141/143 of PdhR(96-254), mutations S190R/R191S/R192P”, in assay [1], the “change of the ratio … at 485 nm” value is 3.1 times; the Kd was 158 µM.

With “141/143: optical sensor with cpYFP inserted at site 141/143 of PdhR(96-254)”, in assay [1], the “change of the ratio … at 485 nm” value turned out to be 2.0 times; the Kd worked out at 28 µM. The specificity result in assay [2] is on record as “good specificity”.

On to “192/194-M194V-S190E/R191N/R192D: cpYFP at 192/194 of PdhR(96-254), mutations M194V/S190E/R191N/R192D”, for which, in assay [1], the “change of the ratio … at 485 nm” value is reported as 13.1 times; the Kd is 1070 µM. Besides, the specificity result in assay [2] is given as “good specificity”.
